In patent US20250346550A1, “METHODS OF MODULATING ENDONUCLEASE G USING RESVERATROL AND ITS DERIVATIVES” (THE REGENTS OF THE UNIVERSITY OF COLORADO A BODY CORPORATE, priority 2022, published 2025):

How the values were obtained:
[1] = system: PME defect of cps-6(tm3222) embryos; test: PME microscopy assay in cps-6(tm3222) crosses; assay type: in vivo, C. elegans; conditions: 64-cell embryos, scored as in FIG. 1a (FIG. 6b); DMSO control average of 17 clusters
Source text: (§1) The numbers of MTR-stained paternal mitochondrial clusters were scored as in FIG. 1a. cps-6(tm3222) and lgg-1(bp523) alleles were used in the assays. Data are mean±s.e.m. n=20 embryos (b) and 15 embryos (c) in each experiment. **P<0.01; ***P<0.001; n.s., not significant, two-sided, unpaired t-test.
(§2) To investigate how these six compounds might affect PME, the present inventors performed chemical genetic analysis to analyze the PME pathways that might be affected by the compounds. The present inventors first examined whether they might affect the paternal PME pathway mediated by the mitochondrial endonuclease CPS-6, whose activity is inhibited by oxidation and protected by reducing agents.

[2] = system: paternal mitochondrial elimination (PME) in C. elegans wild-type (N2) cross-fertilized embryos; test: PME fluorescent microscopy assay (MTR-stained paternal mitochondrial clusters), N2 males x N2 hermaphrodites; assay type: in vivo; conditions: for effect on PME in the screen: compound 100 μM, 64-cell stage embryos (FIG. 1a)
Description: FIG. 1. […] The numbers of MTR-stained paternal mitochondrial clusters in 64-cell cross-fertilized embryos from mating of MTR-stained N2 males with N2 hermaphrodites in the presence of the indicated compounds (100 μM) were scored. n≥15 embryos for each compound. b, d-g, Quantification of MTR-stained paternal mitochondrial clusters in 64-cell stage embryos (b, d-f) or in embryos at the indicated stage (g) from the cross between MTR-stained N2 males and N2 hermaphrodites, in the presence of 0.25% ethanol (Mock) or 50 μM of the indicated compound. In each experiment, n>40 embryos (b,d,e), n=20 embryos (f), and n≥10 embryos (g) were scored, respectively. […] Data are mean±s.e.m. **P<0.01, ***P<0.001; n.s., not significant, two-sided, unpaired t-test.
FIG. 7. Effects of different dosages of resveratrol isomers on PME. a, b, The effects of different dosages of cis-resveratrol (a) and trans-resveratrol (b) on PME. The numbers of MTR-stained paternal mitochondrial clusters in 64-cell embryos (a) or 16-cell embryos (b) from mating of MTR-stained N2 males with N2 hermaphrodites in the presence of the indicated concentrations of resveratrol isomers were scored. […] N2 hermaphrodites and MTR-stained uaDf5/+ males were mated as indicated in the presence of 0.25% ethanol (Mock, d), 50 μM trans-resveratrol (e), or 50 μM cis-resveratrol (f). Males also carried smIs42, an integrated Psur-5sur-5::gfp transgene, which directs GFP expression in all somatic cells in most developmental stages, and was used to track cross progeny. A single cross-fertilized embryo or larva (MTR- or GFP-positive) at the indicated stage was analyzed by PCR. uaDf5/+ and N2 hermaphrodites were controls.
FIG. 12. […] Quantification of MTR-stained paternal mitochondrial clusters at the indicated embryonic stages from the cross between MTR-stained N2 males and N2 hermaphrodites, in the presence of 0.25% ethanol (Mock) or 50 μM of the indicated compound. In each experiment, n≥10 embryos embryos. Data are mean±s.e.m. **P<0.01, ***P<0.001; n.s., not significant, two-sided, unpaired t-test.
Following fertilization, paternal mitochondria are rapidly depolarized and damaged in fertilized eggs, which could generate and release reactive oxygen species (ROS) that affect PME and embryo development. We thus screened twelve small molecules derived from natural products that have been used as antioxidants for the potential activity in modulating PME (FIG. 6a), using a fluorescent microscopy assay. In this assay, C. elegans wild-type (N2) males prestained with Mitotracker Red (MTR), a mitochondrion-specific fluorescent dye, were mated with unstained N2 hermaphrodites in the presence of the compound of interest ([…]) and the cross-fertilized embryos were examined for the presence of MTR-stained paternal mitochondria or mitochondrial clusters.

[3] = system: PME defect of lgg-1(bp523) embryos (autophagy pathway); test: PME microscopy assay in lgg-1(bp523) crosses; assay type: in vivo, C. elegans; conditions: FIG. 6c
Source text: as §1, §2

[4] = system: EndoG; conditions: stated in discussion, no test described; cited from earlier work
[5] = target: T1, CPS-6 (Caenorhabditis elegans, UniProt Q95NM6); test: plasmid DNA cleavage assay; assay type: biochemical, C. elegans; conditions: 20 μM
T1 construct: Recombinant CPS-6 protein was incubated with the supercoiled plasmid DNA substrate
T1 sequence (Q95NM6 1-308): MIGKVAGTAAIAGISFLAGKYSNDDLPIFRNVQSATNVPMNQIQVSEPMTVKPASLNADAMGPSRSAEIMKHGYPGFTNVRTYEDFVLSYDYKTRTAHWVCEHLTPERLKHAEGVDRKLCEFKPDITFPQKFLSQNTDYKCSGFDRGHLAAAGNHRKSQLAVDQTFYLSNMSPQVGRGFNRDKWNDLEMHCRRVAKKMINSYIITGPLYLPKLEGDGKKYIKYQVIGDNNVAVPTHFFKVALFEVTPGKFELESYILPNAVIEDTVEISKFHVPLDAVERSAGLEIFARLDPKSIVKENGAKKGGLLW
Description: FIG. 3. Resveratrol isomers target CPS-6 to affect PME. a, b, Both cis-resveratrol and trans-resveratrol act paternally to affect PME. The numbers of MTR-stained paternal mitochondrial clusters in embryos at 64-cell (a) or 16-cell (b) stage from the indicated crosses were scored. N2 males or hermaphrodites were pretreated with 0.25% ethanol (Mock), 50 μM cis-resveratrol (a), or 50 μM trans-resveratrol (b) as indicated before mating. c-g, Quantification of MTR-stained paternal mitochondrial clusters in 64-cell embryos from the indicated crosses treated with 0.25% ethanol (Mock), 50 μM cis-resveratrol, and 50 μM trans-resveratrol, respectively. Alleles used are lgg-1(bp523), cps-6(tm3222) and rad-23(tm2595). Data are mean s.e.m; n≥15 embryos (a) and n≥20 embryos (b, c-g) were scored in each experiment. ***P<0.001; n.s., not significant, two-sided, unpaired t-test. h, Resveratrol isomers enhance or inhibit the nuclease activity of CPS-6 in a plasmid DNA cleavage assay. 10 ng of CPS-6 were incubated with 0.25% ethanol (Mock), 20 μM cis-resveratrol, or 20 μM trans-resveratrol in dark at 4° C. for 1.5 hours, before 1 μg of the pPD49.78 plasmid DNA were added to the reactions. After further incubation at 30° C. for 1 hour, the reactions were resolved on a 1% agarose gel. Three different forms of plasmid DNA are indicated.
FIG. 11. Stabilized trans-resveratrol enhances the nuclease activity of CPS-6 in a plasmid DNA cleavage assay and is resistant to UV irradiation. 10 ng of CPS-6 were incubated with 0.25% ethanol (Mock), 20 μM locked trans-resveratrol with or without UV irradiation, 20 μM trans-resveratrol with or without UV irradiation, and 20 μM cis-resveratrol with or without UV irradiation, respectively, in dark at 4° C. for 1.5 hours, before 1 μg of the pPD49.78 plasmid DNA were added to the reactions. After further incubation at 30° C. for 1 hour, the reactions were resolved on a 1% agarose gel. Three different forms of plasmid DNA are indicated. Resveratrol isomers or derivative were subjected to UV irradiation for 3 hours.
Because resveratrol is an antioxidant and the endonuclease activity of CPS-6 is regulated by redox conditions both in vitro and in vivo, we investigated the possibility that resveratrol isomers could directly affect the nuclease activity of CPS-6 using a plasmid DNA cleavage assay. Recombinant CPS-6 protein was incubated with the supercoiled plasmid DNA substrate in the presence or absence of 20 μM trans-resveratrol or cis-resveratrol and the reactions were resolved by an agarose gel. […] Since the nuclease activity of CPS-6 is required for PME, these in vitro results are consistent with the in vivo observations that trans-resveratrol enhances and cis-resveratrol inhibits PME.

[6] = system: α-synuclein-induced dopaminergic neuronal death in baIn11 animals; test: α-synuclein-based Parkinson's Disease model, DA neuronal death; assay type: in vivo, C. elegans; conditions: 50 μM, adult day 2 (FIG. 8c)
Source text: FIG. 8. […] In each experiment, 300 animals were scored to determine the percentage of animals losing at least one dopaminergic neuron in the head. Data are mean±s.e.m. *P<0.05; ***P<0.001, two-sided, unpaired t-test.
FIG. 13. […] In each experiment, 300 animals were scored to determine the percentage of animals losing at least one of the six dopaminergic neurons in the head. Data are mean±s.e.m. ****P<0.001, two-sided, unpaired t-test.
In addition to PME and apoptosis, EndoG was previously shown to play an important role in mediating dopaminergic (DA) neuronal death induced by expression of human α-synuclein, which is widely considered to be a major proponent of Parkinson's disease. However, the mechanism by which EndoG mediates α-synuclein-induced neurodegeneration is unclear. In a C. elegans α-synuclein-based Parkinson's Disease model, co-expression of GFP and human α-synuclein in C. elegans dopaminergic neurons under the control of the promoter of the dat-1 gene, which encodes a dopamine transporter, from an integrated transgene baIn11 (Pdat-1::gfp/Pdat-1::α-synuclein) caused DA neuronal death in 30% of adult baIn11 animals (FIG. 8a). The cps-6(tm3222) mutation blocked DA neuronal death in adult baIn11 animals (FIG. 8a), confirming that CPS-6 is important for α-synuclein-induced DA neuronal death.

Row | SMILES | effect on PME defect of cps-6(tm3222) embryos, screen compounds [1] | effect on PME in the screen [2] | further results
1 | COc1cc(/C=C/C(=O)CC(=O)/C=C/c2ccc(O)c(OC)c2)ccc1O [curcumin] | significantly increased the number of paternal mitochondrial clusters |  | 
2 | Oc1cc(O)c2c(c1)O[C@H](c1ccc(O)c(O)c1)[C@@H](O)C2 [catechinic acid, reference compound] |  | did not inhibit PME | 
3 | O=c1c(O)c(-c2ccc(O)c(O)c2)oc2cc(O)cc(O)c12 [quercetin] | significantly increased the number of paternal mitochondrial clusters |  | 
4 | Oc1ccc(/C=C/c2cc(O)cc(O)c2)cc1 [resveratrol, 3,5,4′-trihydroxy-trans-stilbene] | did not affect the PME defect |  | enhancement of the PME defect in lgg-1 deficient embryos, screen compounds [3]: enhanced the PME defect; affinity of resveratrol to EndoG [4]: nanomolar affinity
5 | N[C@@H](CCC(=O)N[C@@H](CS)C(=O)NCC(=O)O)C(=O)O [glutathione, reference compound] |  | did not inhibit PME | 
6 | Nc1nc2ncc(CNc3ccc(C(=O)N[C@@H](CCC(=O)O)C(=O)O)cc3)nc2c(=O)[nH]1 [folic acid, reference compound] |  | did not inhibit PME | 
7 | O=C(OC[C@H]1O[C@@H](OC(=O)c2cc(O)c(O)c(OC(=O)c3cc(O)c(O)c(O)c3)c2)[C@H](OC(=O)c2cc(O)c(O)c(OC(=O)c3cc(O)c(O)c(O)c3)c2)[C@@H](OC(=O)c2cc(O)c(O)c(OC(=O)c3cc(O)c(O)c(O)c3)c2)[C@@H]1OC(=O)c1cc(O)c(O)c(OC(=O)c2cc(O)c(O)c(O)c2)c1)c1cc(O)c(O)c(OC(=O)c2cc(O)c(O)c(O)c2)c1 [tannic acid, reference compound] |  | did not inhibit PME | 
8 | C[n+]1ccc(-c2cc[n+](C)cc2)cc1 [paraquat, reference compound] |  | inhibited PME | 
9 | CC(CC(=O)C[C@@H](C)[C@H]1CC(=O)[C@@]2(C)C3=C(C(=O)C[C@]12C)[C@@]1(C)CC[C@H](O)C(C)(C)[C@@H]1C[C@@H]3O)C(=O)O (stereo partly shown) [ganoderic acid B] | significantly increased the number of paternal mitochondrial clusters |  | enhancement of the PME defect in lgg-1 deficient embryos, screen compounds [3]: enhanced the PME defect
10 | O=C1O[C@H]([C@@H](O)CO)C(O)=C1O [ascorbic acid, reference compound] |  | did not inhibit PME | 
11 | Oc1ccc(/N=C/c2cc(O)cc(O)c2)cc1 |  |  | dynamics of PME at different embryonic stages ([2]; 50 μM vs 0.25% ethanol mock (FIG. 1g, FIG. 12)): identical activity in promoting PME; effect on CPS-6 nuclease activity ([5]; 10 ng CPS-6, pPD49.78 plasmid DNA): similarly enhance the endonuclease activity of CPS-6 like trans-resveratrol; effect on CPS-6 nuclease activity after UV irradiation of the compound ([5]; compound UV irradiated for 3 hours (FIG. 11)): did not alter the activity; adult baIn11 animals with neurodegeneration (DA neuronal loss) [6]: 45%
12 | O=c1cc(-c2ccccc2)oc2cc(O)c(O)c(O)c12 [baicalein] | significantly increased the number of paternal mitochondrial clusters |  | enhancement of the PME defect in lgg-1 deficient embryos, screen compounds [3]: not
13 | CC1=C(/C=C/C(C)=C/C=C/C(C)=C/C=C/C=C(C)/C=C/C=C(C)/C=C/C2=C(C)C(=O)[C@@H](O)CC2(C)C)C(C)(C)C[C@H](O)C1=O [astaxanthin, reference compound] |  | did not inhibit PME | 
14 | O=c1cc(-c2ccc(O)cc2)oc2cc(O)cc(O)c12 [apigenin] | significantly increased the number of paternal mitochondrial clusters |  | enhancement of the PME defect in lgg-1 deficient embryos, screen compounds [3]: enhanced the PME defect
